In publication PMC9005681, “Use of AD Informer Set compounds to explore validity of novel targets in Alzheimer's disease pathology” (Alzheimer's & Dementia : Translational Research & Clinical …, 2022):
Where a name gives a salt, the structure may show the parent alone. Read-outs that look alike come from different tables or passages of the source.

How the values were obtained:
Aβ40 and Aβ42 = tested on: Aβ40 and Aβ42; design: method as in PMID 25331948; settings: 2 mg/kg; cited from earlier work
tau phosphorylation [1] = tested on: tau phosphorylation; design: method as in PMID 25331948; settings: only observed at 10 μM; cited from earlier work
[2] = tested on: HMC3 (human microglia) immortalized cell line; test: pHrodo-myelin phagocytosis assay, HMC3; assay type: cell-based; settings: 10-point dose-response up to 20 or 40 μM, 24 or 48 h
Method: (§1) Microglial viability and phagocytosis studies: The pHrodo-myelin phagocytosis/cell viability assay, modified based on a published method, was run with BV2 (mouse microglia) and HMC3 (human microglia) immortalized cell lines in the Chu lab at IUSM. The 384-well plate high content analysis assay with BV2 and HMC3 microglial cell lines is used to quantify phagocytosis and cell viability simultaneously. High content imaging is performed with the ArrayScan automatic imaging system and imaging analysis done with the system’s software. Cells are treated with compounds for total 48 hours including final 20 hours seeded with pHrodo-myelin (labeled phagocytosis ligand, purified from mouse brain), then cells are stained with Hoechst- […]
(§2) Three measurements are extracted from the assay: 1) phagocytosis signal by mean total phagocytosis spot intensity per cell, 2) total cell counts per well as the main measurement of cell viability, and 3) mean average nuclear intensity per cell as profiling of cell health since apoptotic cells showing nuclear intensity increase (early apoptosis) and decrease (later apoptosis), respectively. […]
(§3) dose-response follow-up in duplicate or triplicate. These compounds were initially dosed up to […]

[3] = tested on: BV2 (mouse microglia) immortalized cell line; test: pHrodo-myelin phagocytosis assay, BV2; assay type: cell-based; settings: 10-point dose-response up to 20 or 40 μM, 24 or 48 h
Method: as §1, §2, §3

[4] = tested on: HMC3 (human microglia) immortalized cell line; test: Microglial cell viability (cell count, nuclear measures), HMC3; assay type: cell-based; settings: 10-point dose-response up to 20 or 40 μM, 24 or 48 h
Method: Microglial viability and phagocytosis studies: The pHrodo-myelin phagocytosis/cell viability assay, modified based on a published method, was run with BV2 (mouse microglia) and HMC3 (human microglia) immortalized cell lines in the Chu lab at IUSM. The 384-well plate high content analysis assay with BV2 and HMC3 microglial cell lines is used to quantify phagocytosis and cell viability simultaneously. High content imaging is performed with the ArrayScan automatic imaging system and imaging analysis done with the system’s software. Cells are treated with compounds for total 48 hours including final 20 hours seeded with pHrodo-myelin (labeled phagocytosis ligand, purified from mouse brain), then cells are stained with Hoechst-33342 one hour before the imaging. Three measurements are extracted from the assay: 1) phagocytosis signal by mean total phagocytosis spot intensity per cell, 2) total cell counts per well as the main measurement of cell viability, and 3) mean average nuclear intensity per cell as profiling of cell health since apoptotic cells showing nuclear intensity increase (early apoptosis) and decrease (later apoptosis), respectively.
Based on the single-concentration data, several compounds were selected for 10-point dose-response follow-up in duplicate or triplicate. These compounds were initially dosed up to 20 μM for 24h. […]

[5] = tested on: BV2 (mouse microglia) immortalized cell line; test: Microglial cell viability (cell count, nuclear measures), BV2; assay type: cell-based; settings: 10-point dose-response up to 20 or 40 μM, 24 or 48 h
Method: as §1, §2, §3

[6] = tested on: HMC3 (human microglia) immortalized cell line; settings: cited from earlier work; for Phagocytosis HMC3: 10 μM single concentration, normalized to control (DMSO) treated cells
[7] = tested on: BV2 (mouse microglia) immortalized cell line; settings: cited from earlier work; for Phagocytosis BV2: 10 μM single concentration, normalized to control (DMSO) treated cells
ALK = tested on: ALK; design: method as in PubMed 24819116, 25733882; settings: published affinity; ref PubMed 24819116, 25733882; cited from earlier work
cellular system = tested on: cellular system; design: method as in column References for potency and dosing (the 5th table c13); settings: published data; References for potency and dosing; cited from earlier work
[8] = tested on: HMC3 (human microglia) immortalized cell line; settings: 10 μM single concentration, normalized to control (DMSO) treated cells; in % (unit assumed); cited from earlier work
[9] = tested on: BV2 (mouse microglia) immortalized cell line; settings: 10 μM single concentration, normalized to control (DMSO) treated cells; in % (unit assumed); cited from earlier work
[10] = aqueous, neutral pH (7.4); cited from earlier work
CYP3A43 = settings: published affinity; ref PubMed 10801218, 1526623; cited from earlier work
ERBB3 (HER3) = tested on: ERBB3 (HER3); design: method as in PubMed 20145185; settings: published affinity; ref PubMed 20145185; cited from earlier work
tau phosphorylation [11] = tested on: tau phosphorylation; design: method as in PMID 32063836, PMID 28502066; settings: cited from earlier work
GPCRs = settings: profiled against many of the same GPCRs; cited from earlier work
[12] = 10 μM, human immortalized microglial cells
[13] = 10 μM, murine immortalized microglial cells

Compound | Phagocytosis in dose-response follow-up, HMC3 [2] | Phagocytosis in dose-response follow-up, BV2 [3] | Toxicity in dose-response follow-up, BV2 [5] | Phagocytosis HMC3 [6] | Phagocytosis BV2 [7] | Reported as cell active (<10 μM) (cellular system) | Cell number HMC3 [8] | DNA intensity HMC3 [8] | Nuclear size HMC3 [8] | Cell number BV2 [9] | DNA intensity BV2 [9] | Nuclear size BV2 [9] | Kinetic solubility [10] [µM] | other results
COc1ccc(-c2cc3nccn3c(Nc3ncccc3C(N)=O)n2)cc1OC [BAY61‐3606] |  |  |  |  |  |  |  |  |  |  |  |  |  | Detectable levels of Aβ40 and Aβ42 (Aβ40 and Aβ42): significant reduction; Tau phosphorylation (tau phosphorylation [1]): indirectly reduces tau phosphorylation
C[C@H]1Oc2cc(cnc2N)-c2c(nn(C)c2C#N)CN(C)C(=O)c2ccc(F)cc21 [UNC10244898A, Lorlatinib] | inhibition/stimulation of phagocytosis occurred at a much lower concentration | inhibition/stimulation of phagocytosis occurred at a much lower concentration | Some toxicity was observed | 37.8 | 200.3 | Y (Published data supports that the compound is active in a cellular system when dosed at 10 μM (Y/N)) | 127.2 | 89.2 | 110.3 | 117.2 | 110.1 | 102.7 | 172 | Toxicity in dose-response follow-up, HMC3 [4]: Some toxicity was observed; Inhibition of human microglial phagocytosis at 10 μM (<70% control) [6, 12]: Y (The compound was found to inhibit phagocytosis (response threshold: <70% control) when human immortalized microglial cells were dosed at 10 μM (Y: yes)); Stimulation of mouse microglial phagocytosis at 10 μM (>150% control) [7, 13]: Y (The compound was found to stimulate phagocytosis (response threshold: >150% control) when murine immortalized microglial cells were dosed at 10 μM (Y: yes)); Reported on-target biochemical potency, ALK (ALK): <0.07 nM
CC(=O)N1CCN(c2ccc(OCC3COC(Cn4ccnc4)(c4ccc(Cl)cc4Cl)O3)cc2)CC1 (stereo not drawn) [UNC10100724A, Ketoconazole] | stimulation of phagocytosis was observed | stimulation of phagocytosis was observed | without notable toxicity | 144.4 | 280.0 | Y (Published data supports that the compound is active in a cellular system when dosed at 10 μM (Y/N)) | 125.5 | 100.1 | 96.3 | 129.7 | 104.7 | 103.8 | 119.6 | Toxicity in dose-response follow-up, HMC3 [4]: without notable toxicity; Stimulation of mouse microglial phagocytosis at 10 μM (>150% control) [7, 13]: Y (The compound was found to stimulate phagocytosis (response threshold: >150% control) when murine immortalized microglial cells were dosed at 10 μM (Y: yes)); Reported on-target biochemical potency, CYP3A43 (CYP3A43): 64 µM
CNC(=O)CN1CCC(Oc2cc3c(Nc4cccc(Cl)c4F)ncnc3cc2OC)CC1 [UNC10302865A, Sapitinib (AZD8931)] | stimulation of microglial phagocytosis | inhibition of phagocytosis | Some toxicity was observed at the highest concentrations | 152.7 | 68.8 | Y (Published data supports that the compound is active in a cellular system when dosed at 10 μM (Y/N)) | 132.1 | 90.8 | 105.8 | 102.4 | 101.0 | 110.1 | 114.6 | Stimulation of human microglial phagocytosis at 10 μM (>150% control) [6, 12]: Y (The compound was found to stimulate phagocytosis (response threshold: >150% control) when human immortalized microglial cells were dosed at 10 μM (Y: yes)); Inhibition of mouse microglial phagocytosis at 10 μM (<70% control) [7, 13]: Y (The compound was found to inhibit phagocytosis (response threshold: <70% control) when murine immortalized microglial cells were dosed at 10 μM (Y: yes)); Reported on-target biochemical potency, ERBB3 (HER3) (ERBB3 (HER3)): 4 nM
O=c1c2ccccc2[se]n1-c1ccccc1 [Ebselen] |  |  |  |  |  |  |  |  |  |  |  |  |  | Tau phosphorylation (tau phosphorylation [11]): decrease tau phosphorylation
COc1cc(-c2cc3ncccc3c(O[C@H](C)[C@H]3CNC(=O)C3)n2)cc(OC)c1OC [BI1002494] |  |  |  |  |  |  |  |  |  |  |  |  |  | GPCR affinity (published profiling) (GPCRs): lacked this activity
COc1cc2c(cc1OC)C(=O)C(CC1CCN(Cc3ccccc3)CC1)C2 (stereo not drawn) [UNC10240506B, Donepezil Hydrochloride (E2020)] |  |  |  |  |  | Y (Published data supports that the compound is active in a cellular system when dosed at 10 μM (Y/N)) | 130.2 | 98.0 |  |  | 104.5 |  |  | 
